In US11999782B2, “Therapeutic agents for the treatment of diseases associated with undesired cell proliferation” (Fundació Privada Institutció Catalana de Recerca I Estudis …, priority 2009, dated 2024):

What was measured:
[1] = tested on: GICs (glioma initiating cells) / GBM neurospheres; test: Self-renewal assay of GBM neurospheres (GICs derived from patients); type: cell-based, human; conditions: for number of newly formed neurospheres / total number of cells: GBM1, GBM2, GBM3 neurosphere cells, 7 days in the absence of growth factors, 100 pM TGFβ1 or 20 ng/ml LIF
Experimental: FIG. 1. Effect of TGFβ on the self-renewal of GIC derived from patients. (A) Representative images of PCTCs and neurospheres of GBM generated from samples of 3 different patients with GBM (GBM1, GBM2, GBM3). (B) Musashi-1 (Msi-1), Sox2, Nestin and β-actin were determined by means of RT-PCR analysis of PCTCs and neurospheres of 3 samples of human GBM. (C) 100,000 neurosphere (nsph.) or PCTC cells obtained from samples of GBM1, GBM2 and GBM3 tumors were intracranially inoculated in three Balbc nu/nu mice in each case. Magnetic resonance imaging (MRI) studies were performed on days 30-40 in each mouse. The images represent an example of mice inoculated with neurosphere or PCTC cells obtained from GBM1. The mice were weighed twice a week. The graph represents mice inoculated with cells derived from GBM1. (D and E) Neurosphere cells of the indicated GBMs were incubated in the absence of growth factors with 100 pM TGFβ1 and/or 2 μM TβRI inhibitor for 7 days and the number of newly formed neurospheres (D) and the total number of cells (E) were determined. (F) Representative images of GBM1 neurospheres treated as indicated in D and E.
FIG. 6. LIF mediates the increase of self-renewal of GIC by TGFβ. (A, B) GBM1, GBM2 and GBM3 neurosphere cells were treated with 100 pM TGFβ1, 20 ng/ml LIF and/or anti-LIF neutralizing antibody and 0.5 pM P6 in the absence of EGF and FGF and the number of newly formed neurospheres (A) or the total number of cells (B) was determined. (C) Representative images of GBM1 neurospheres treated as indicated in A and B.
The self-renewal of the neurospheres was evaluated by seeding an identical number of cells at a very low density in wells of a 96-well plate. The cells were treated, in the absence of growth factors, with the indicated compounds and the total number of new neurospheres formed after 7 days in culture was counted (Lee et al. (2008) Cancer Cell 13, 69-80; Reynolds and Weiss, (1996) Dev Biol 175, 1-13; Seaberg and van der Kooy, (2002) J Neurosci 22, 1784-1793).
It was decided to evaluate the effect of TGFβ on the capacity for self-renewal of GICs following a well described protocol based on the capacity of GICs to generate neurospheres (Reynolds and Weiss, 1996, Dev Biol. 175:1-13; Seaberg and van der Kooy, 2002, J Neurosci 22:1784-1793). The neurospheres derived from patients were disassociated into individual cells, treated with TGFβ or left untreated for 7 days in the absence of growth factors and the newly formed neurospheres and the total number of cells were counted. Following this protocol, the effect of TGFβ on the capacity for self-renewal of the GICs derived from three different patients was evaluated. […] These effects were blocked when an TGFβ I receptor inhibitor (TβRI) was added at the same time as TGFβ.
It was decided to assess whether LIF and JAK-STAT pathway mediated the increase of self-renewal of GICs by TGFβ. For this purpose, the neutralizing antibody against LIP and P6 was used to specifically block the effect of the secreted LIP on cells treated with TGFβ. The neurospheres were disassociated into individual cells and were treated with TGFβ, recombinant LIF, anti-LIF antibody and/or P6. The newly formed neurospheres and the total number of cells were counted. […] The treatment with the neutralizing antibody of LIP decreased the induction of the self-renewal of GICs by TGFβ.

[2] = tested on: STAT3 phosphorylation (JAK-STAT pathway); test: p-STAT3 Western blotting in GBM1 neurospheres; type: cell-based, human; conditions: for phosphorylation of STAT3: 20 ng/ml LIF (time course) or 100 pM TGFβ1 for 4 hours
Experimental: FIG. 5. TGFβ induces the LIF-JAK-STAT pathway in GEM neurospheres derived from patients. (A) The levels of p-STAT3 and STAT3 were determined by means of Western blotting of neurospheres of the sample of GBM1 treated with 20 ng/ml LIF for the indicated time periods. (B) The neurospheres of the sample of GBM1 were treated with 20 ng/ml LIF and/or 0.5 pM P6 for 15 minutes and the levels of total p-STAT3 and STAT3 were determined by means of Western blotting. (C) The neurospheres of the sample of GBM1 were treated with 100 pM TGFβ1 or the 2 pM TβRI inhibitor for 4 hours in the absence of EFG and FGF and the levels of p-STAT3, STAT3, p-Smad2, Smad2 and α-tubulin were determined by means of Western blotting. (D) the neurospheres of the sample of GBM1 were treated with 100 pM TGFβ1, 0.5 μM P6 or the blocking antibody against LIF for 4 hours in the absence of EGF and FGF and the levels of total p-STAT3 and STAT3 were determined by means of Western blotting.
Genomic DNA of U373MG was used to amplify the −634/+32 region of the human LIF promoter which was cloned into the pGL2-basic luciferase vector. The deletion constructs (−267/+32), and (−73/+32) were generated by means of digestion of the construct (−634/+32). Two point mutations were introduced in positions −183 bp and −184 bp in the construct (−267/+32) to interrupt the Smad binding element (SBE) and generate the construct (−267/+32) mutSBE. TGFβ1, TGFβ2, TGFβ3 (R&D Systems), TβRI inhibitor (SB431542, Tocris), LIF (Chemicon), the neutralizing antibodies against LIF (R&D), JAK inhibitor (tetracyclic pyridone 6 (P6) Calbiochem), the assembly of SMART siRNAs targeted to Smad2, Smad3 and Smad4 (Dharmacon), and the control siRNA siGlo (Dharmacon) were used at the indicated concentrations. The antibodies specific against p-Smad2, Smad2, p-STAT3 (p-Tyr705) and total STAT3 (Cell Signalling) and against Smad2, Smad3 and Smad4 (Hata et al., (2000) Cell 100, 229-240) were used for Western blotting.
In order to distinguish whether the LIF signaling pathway is functional in GEM neurospheres, the neurospheres were treated with recombinant LIF and the levels of phosphorylation of the downstream substrate of the LIF receptor complex, STAT3, were determined. […] Furthermore, the induction of p-STAT3 was prevented by the presence of a pharmacological JAK-specific, tetracyclic pyridone 6 (P6) (Pedranzini et al., 2006, Cancer Res, 66: 9714-9721; Thompson et al., 2002, Bioorg Med Chem Lett, 12:1219-1223) (FIG. 5B). […] It was decided to assess whether LIP was mediating the induction of p-STAT3 by TGFβ. For this purpose, a neutralizing antibody against LIF was used to specifically block the effect of secreted LIP on cells treated with TGFβ. The presence of the neutralizing antibody of LIP decreased the induction of p-STAT3 by TGFβ. Furthermore, the levels of p-STAT3 in cells treated with TGFβ were repressed by means of the treatment with P6 (FIG. 5D).

Compound	number of newly formed neurospheres [1]	total number of cells [1]	phosphorylation of STAT3 [2]	effect of the isolated inhibitor on number of neurospheres and total number of cells ([1]; 2 μM TβRI inhibitor without TGFβ, 7 days, absence of growth factors)	effect on the induction of self-renewal of GICs by TGFβ (number of neurospheres, total number of cells) ([1]; added with 100 pM TGFβ1, 2 μM TβRI inhibitor, anti-LIF neutralizing antibody or 0.5 pM P6, absence of EGF and FGF)	effect on the induction of p-STAT3 by TGFβ ([2]; 100 pM TGFβ1, 4 hours, absence of EGF and FGF, 2 pM TβRI inhibitor, 0.5 μM P6 or blocking antibody against LIF)
LIF: recombinant leukemia inhibitory factor, an IL-6 type cytokine (Chemicon)	increased	increased	induced a quick phosphorylation of STAT3			
TGFβ: TGFβ1 (R&D Systems), used at 100 pM according to the figure legends	significantly increased	increased	induced the phosphorylation of STAT3			
NC(=O)c1ccc(-c2nc(-c3ccc4c(c3)OCO4)c(-c3ccccn3)[nH]2)cc1 [TβRI inhibitor, SB431542, reference compound]				no significant effect	blocked	prevented that effect
